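Method: 48-hour compound exposure of cells in 96-well plates, five concentrations, linear interpolation of endpoints. GI50 is the concentration that inhibits growth by half.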 Active and inactive are the calls of the source. No stated cut-off is given here; in the data, active = GI50 up to about 1.1 µM and inactive = higher.
How the values were obtained:
Experiment in all cases: DTP human tumour cell line panel, 48 h
MOLT-4 = test system: MOLT-4
CAKI-1 = test system: CAKI-1
K562 = test system: K562
NCI/ADR-RES = test system: NCI/ADR-RES
SK-MEL-5 = test system: SK-MEL-5
SF-295 = test system: SF-295
SK-MEL-28 = test system: SK-MEL-28
NCI-H522 = test system: NCI-H522
TK-10 = test system: TK-10
HL-60 = test system: HL-60
HCC 2998 = test system: HCC 2998
MDA-MB-231 = test system: MDA-MB-231
Malme-3M = test system: Malme-3M
SK-MEL-2 = test system: SK-MEL-2
Hs-578T = test system: Hs-578T
HCT-116 = test system: HCT-116
SN12C = test system: SN12C
DU-145 = test system: DU-145
BT-549 = test system: BT-549
OVCAR-4 = test system: OVCAR-4
U-251 = test system: U-251
SF-539 = test system: SF-539
786-0 = test system: 786-0
SW-620 = test system: SW-620
UO-31 = test system: UO-31
NCI-H23 = test system: NCI-H23
NCI-H460 = test system: NCI-H460
SR = test system: SR
MDA-MB-435 = test system: MDA-MB-435
MDA-N = test system: MDA-N
A549 = test system: A549
SNB-75 = test system: SNB-75
OVCAR-5 = test system: OVCAR-5
HOP-92 = test system: HOP-92
SF-268 = test system: SF-268
M14 = test system: M14
OVCAR-3 = test system: OVCAR-3
CCRF-CEM = test system: CCRF-CEM
MCF7 = test system: MCF7
ACHN = test system: ACHN
KM12 = test system: KM12
HT-29 = test system: HT-29
SNB-19 = test system: SNB-19
OVCAR-8 = test system: OVCAR-8
RXF 393 = test system: RXF 393
LOX IMVI = test system: LOX IMVI
COLO 205 = test system: COLO 205
SK-OV-3 = test system: SK-OV-3
EKVX = test system: EKVX
NCI-H226 = test system: NCI-H226
HCT-15 = test system: HCT-15
UACC-62 = test system: UACC-62
UACC-257 = test system: UACC-257
PC-3 = test system: PC-3
T47D = test system: T47D
IGROV-1 = test system: IGROV-1
A498 = test system: A498
RPMI-8226 = test system: RPMI-8226
HOP-62 = test system: HOP-62

For COC(=O)[C@]1(C)CCC[C@]2(C)[C@@H](CCC(=O)C(C)C)[C@]3(C=O)O[C@@H]3C[C@H]21, the GI50 (MOLT-4) was 29.9 µM (inactive), the GI50 (CAKI-1) was 14.8 µM (inactive) and the GI50 (K562) was 27.9 µM (inactive). The GI50 (NCI/ADR-RES) was 25.7 µM (inactive), the GI50 (SK-MEL-5) was 31.1 µM (inactive) and the GI50 (SF-295) was 36.1 µM (inactive). The GI50 (SK-MEL-28) was > 100 µM (inactive), the GI50 (NCI-H522) was 16.8 µM (inactive) and the GI50 (TK-10) was 51.8 µM (inactive). The GI50 (HL-60) was 40.1 µM (inactive), the GI50 (HCC 2998) was 58.6 µM (inactive) and the GI50 (MDA-MB-231) was 52 µM (inactive). The GI50 (Malme-3M) was 53.1 µM (inactive), the GI50 (SK-MEL-2) was 34.1 µM (inactive) and the GI50 (Hs-578T) was 41.6 µM (inactive). For the same molecule, the GI50 (HCT-116) was 21.7 µM (inactive), the GI50 (SN12C) was 30.6 µM (inactive) and the GI50 (DU-145) was 39.4 µM (inactive). The GI50 (BT-549) was 24.7 µM (inactive), the GI50 (OVCAR-4) was 24.7 µM (inactive) and the GI50 (U-251) was 33.7 µM (inactive). For the same molecule, the GI50 (SF-539) was 74.6 µM (inactive), the GI50 (786-0) was 32.4 µM (inactive) and the GI50 (SW-620) was 47.6 µM (inactive). The GI50 (UO-31) was 18.7 µM (inactive), the GI50 (NCI-H23) was 28.1 µM (inactive) and the GI50 (NCI-H460) was > 100 µM (inactive). The GI50 (SR) was 30.7 µM (inactive), the GI50 (MDA-MB-435) was 28.2 µM (inactive) and the GI50 (MDA-N) was 23.6 µM (inactive). The GI50 (A549) was > 100 µM (inactive), the GI50 (SNB-75) was 17.1 µM (inactive) and the GI50 (OVCAR-5) was > 100 µM (inactive). For the same molecule, the GI50 (HOP-92) was 29.8 µM (inactive), the GI50 (SF-268) was 44.1 µM (inactive) and the GI50 (M14) was 32.1 µM (inactive). For the same molecule, the GI50 (OVCAR-3) was 33.4 µM (inactive), the GI50 (CCRF-CEM) was 32.2 µM (inactive) and the GI50 (MCF7) was 33.4 µM (inactive). The GI50 (ACHN) was 27 µM (inactive), the GI50 (KM12) was 34.3 µM (inactive) and the GI50 (HT-29) was 38.9 µM (inactive). For the same molecule, the GI50 (SNB-19) was 37.2 µM (inactive), the GI50 (OVCAR-8) was 39.4 µM (inactive) and the GI50 (RXF 393) was 19 µM (inactive). For the same molecule, the GI50 (LOX IMVI) was 24.7 µM (inactive), the GI50 (COLO 205) was 35 µM (inactive) and the GI50 (SK-OV-3) was 35.6 µM (inactive). The GI50 (EKVX) was 44.8 µM (inactive), the GI50 (NCI-H226) was 60.1 µM (inactive) and the GI50 (HCT-15) was 26.6 µM. For the same molecule, the GI50 (UACC-62) was 50.2 µM (inactive), the GI50 (UACC-257) was 37.9 µM (inactive) and the GI50 (PC-3) was 28.4 µM (inactive). The GI50 (T47D) was 21.8 µM (inactive).
In the case of Cc1ccc2c(c1)[n+]([O-])c(N)n[n+]2[O-], the GI50 (IGROV-1) is reported as 51.5 µM (inactive), the GI50 (MOLT-4) is reported as > 100 µM (inactive) and the GI50 (CAKI-1) is reported as > 100 µM (inactive). The GI50 (K562) was > 100 µM (inactive), the GI50 (NCI/ADR-RES) was > 100 µM (inactive) and the GI50 (SK-MEL-5) was 37.6 µM (inactive). For the same molecule, the GI50 (SF-295) was > 100 µM (inactive), the GI50 (SK-MEL-28) was > 100 µM (inactive) and the GI50 (NCI-H522) was 39.6 µM (inactive). The GI50 (TK-10) was > 100 µM (inactive), the GI50 (HL-60) was > 100 µM (inactive) and the GI50 (MDA-MB-231) was > 100 µM (inactive). The GI50 (SK-MEL-2) was > 100 µM (inactive), the GI50 (Hs-578T) was > 100 µM (inactive) and the GI50 (HCT-116) was > 100 µM (inactive). For the same molecule, the GI50 (SN12C) was > 100 µM (inactive), the GI50 (DU-145) was > 100 µM (inactive) and the GI50 (BT-549) was > 100 µM (inactive). The GI50 (OVCAR-4) was > 100 µM (inactive), the GI50 (U-251) was > 100 µM (inactive) and the GI50 (A498) was 75.3 µM (inactive). The GI50 (SF-539) was > 100 µM (inactive), the GI50 (786-0) was > 100 µM (inactive) and the GI50 (SW-620) was > 100 µM (inactive). For the same molecule, the GI50 (UO-31) was > 100 µM (inactive), the GI50 (NCI-H23) was 63.2 µM (inactive) and the GI50 (NCI-H460) was 47.8 µM (inactive). For the same molecule, the GI50 (SR) was > 100 µM (inactive), the GI50 (MDA-MB-435) was > 100 µM (inactive) and the GI50 (MDA-N) was > 100 µM (inactive). For the same molecule, the GI50 (A549) was > 100 µM (inactive), the GI50 (SNB-75) was 58.1 µM (inactive) and the GI50 (OVCAR-5) was > 100 µM (inactive). The GI50 (RPMI-8226) was > 100 µM (inactive), the GI50 (SF-268) was > 100 µM (inactive) and the GI50 (M14) was > 100 µM (inactive). The GI50 (OVCAR-3) was > 100 µM (inactive), the GI50 (CCRF-CEM) was 91.2 µM (inactive) and the GI50 (MCF7) was > 100 µM (inactive). The GI50 (ACHN) was > 100 µM (inactive), the GI50 (KM12) was > 100 µM (inactive) and the GI50 (HT-29) was > 100 µM (inactive). The GI50 (SNB-19) was > 100 µM (inactive), the GI50 (OVCAR-8) was > 100 µM (inactive) and the GI50 (LOX IMVI) was 85.3 µM (inactive). The GI50 (COLO 205) was 63.1 µM (inactive), the GI50 (SK-OV-3) was > 100 µM (inactive) and the GI50 (HOP-62) was > 100 µM (inactive). For the same molecule, the GI50 (EKVX) was > 100 µM (inactive), the GI50 (NCI-H226) was > 100 µM (inactive) and the GI50 (HCT-15) was 64.9 µM. For the same molecule, the GI50 (UACC-62) was > 10 µM (inactive), the GI50 (UACC-257) was > 100 µM (inactive) and the GI50 (PC-3) was > 100 µM (inactive). For the same molecule, the GI50 (T47D) was 93.5 µM (inactive).

— ChEMBL document CHEMBL1201862, “PubChem BioAssay data set” (2004)
